Results taken from PubChem BioAssay (NCI).
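How tested: cells in 96-well plates exposed to compound for 48 hours at five concentrations. GI50 marks 50% less growth. TGI: total growth inhibition.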

Columns and labels:
Assay in all cases: DTP human tumour cell line panel, 48 h
ACHN renal = tested on: ACHN renal
UACC-62 melanoma = tested on: UACC-62 melanoma
HCC-2998 colon = tested on: HCC-2998 colon
HOP-92 NSCLC = tested on: HOP-92 NSCLC
OVCAR-8 ovarian = tested on: OVCAR-8 ovarian
A498 renal = tested on: A498 renal
SK-MEL-5 melanoma = tested on: SK-MEL-5 melanoma
HL-60(TB) leukemia = tested on: HL-60(TB) leukemia
SF-539 CNS = tested on: SF-539 CNS
SR leukemia = tested on: SR leukemia

Compound	TGI (ACHN renal) [µM]	TGI (UACC-62 melanoma) [µM]	TGI (HCC-2998 colon) [µM]	TGI (HOP-92 NSCLC) [µM]	TGI (OVCAR-8 ovarian) [µM]	TGI (A498 renal) [µM]	TGI (SK-MEL-5 melanoma) [µM]	TGI (HL-60(TB) leukemia) [µM]	TGI (SF-539 CNS) [µM]	TGI (SR leukemia) [µM]	GI50 (HOP-92 NSCLC) [µM]	GI50 (A498 renal) [µM]	GI50 (SK-MEL-5 melanoma) [µM]	GI50 (SF-539 CNS) [µM]	GI50 (ACHN renal) [µM]	GI50 (UACC-62 melanoma) [µM]	GI50 (HCC-2998 colon) [µM]	GI50 (OVCAR-8 ovarian) [µM]	GI50 (HL-60(TB) leukemia) [µM]	GI50 (SR leukemia) [µM]
COC(c1ccsc1)C(C#N)(C#N)N=Cc1ccsc1 (centres undefined)	54.6	28.7	34	27.1	49.9	29.1	27.7	16.2	30.4	–	–	–	–	–	–	–	–	–	–	–
O=S(=O)(c1cc(Cl)ccc1Cl)N1CCN(S(=O)(=O)c2cc(Cl)ccc2Cl)CC1	> 100	2.48	> 100	> 100	> 100	> 100	> 100	–	> 100	–	–	–	–	–	–	–	–	–	–	–
C/C(O)=C/c1nc2ccccc2nc1/C=C(/C)O	47.7	45.4	–	66.2	83.3	67.4	35.4	56.4	99.3	77.5	–	–	–	–	–	–	–	–	–	–
CCCCC1(N=[N+]=[N-])C(=O)c2cccc3c2N(CCC3)C1=O (centres undefined)	> 100	> 100	> 100	> 100	> 100	> 100	> 100	–	> 100	> 100	–	–	–	–	–	–	–	–	–	–
CCCSc1cc(Cl)c(C)cc1S(=O)(=O)n1ccnc1OCCCN(C)C	> 100	> 100	> 100	–	> 100	> 100	> 100	–	> 100	> 100	–	–	–	–	–	–	–	–	–	–
COc1cc(Oc2nc3ccccc3nc2C(=O)O)cc(OC)c1OC	> 100	> 100	> 100	> 100	> 100	> 100	> 100	> 100	–	> 100	–	–	–	–	–	–	–	–	–	–
CCNc1nc(N)c(C(=O)c2ccc(Cl)cc2)s1	> 100	> 100	–	> 100	–	70.3	> 100	36	> 100	–	–	–	–	–	–	–	–	–	–	–
CC1(C)O[C@H](C(=O)O)[C@@H](C(=O)O)O1	> 100	> 100	> 100	> 100	> 100	> 100	> 100	–	> 100	> 100	–	–	–	–	–	–	–	–	–	–
Cc1c2c(n3c(nc4ccccc43)c1C#N)SCC2	> 10	> 10	–	> 10	> 10	> 10	> 10	> 10	> 10	> 10	–	–	–	–	–	–	–	–	–	–
COc1cc2c(cc1OC)C1CN3C(=O)CCC3C(O)C1c1cc(OC)c(OC)cc1-2 (centres undefined)	> 100	> 100	> 100	> 100	> 100	> 100	> 100	> 100	–	> 100	–	–	–	–	–	–	–	–	–	–
CN(C)N=Nc1ccc([N+](=O)[O-])cc1C(N)=O	–	> 100	> 100	> 100	> 100	> 100	> 100	–	> 100	–	–	–	–	–	–	–	–	–	–	–
Cc1c(CNc2ccc(Cl)c(C(=O)NC(CC(=O)O)C(=O)O)c2)ccc2nc(N)nc(N)c12 (centres undefined)	> 1000	> 1000	–	> 1000	> 1000	680	> 1000	> 1000	> 1000	–	288	24.9	0.36	0.446	–	–	–	–	–	–
Cc1cc(S(=O)(=O)Nc2nc3ccsc3c(=O)n2N)c(S)cc1Cl	> 100	> 100	> 100	–	> 100	–	> 100	> 100	> 100	–	–	–	–	–	–	–	–	–	–	–
COc1c(-c2cc(C)c(Cl)c(=O)[nH]2)c(O)c(OC)c2occc12	> 100	> 100	> 100	> 100	> 100	–	> 100	> 100	> 100	> 100	–	–	–	–	–	–	–	–	–	–
O=C(NCC1Nc2ccncc2S(=O)(=O)N1)c1ccc(Br)cc1 (centres undefined)	> 100	> 100	> 100	> 100	> 100	> 100	> 100	> 100	–	–	–	–	–	–	–	–	–	–	–	–
Cc1oc2nc1C(=O)NCc1nc(cs1)C(=O)N[C@H](C(C)C)c1nc(cs1)C(=O)N[C@H]2C	> 100	> 100	> 100	> 100	> 100	> 100	> 100	–	> 100	–	–	–	–	–	–	–	–	–	–	–
Cc1cn(C2CC(O)C(CO)C2C)c(=O)[nH]c1=O (centres undefined)	> 100	> 100	> 100	> 100	> 100	–	–	> 100	> 100	–	–	–	–	–	–	–	–	–	–	–
COc1ccc(/C=N\N2CC(=O)N3C4C=CC(CC4)N3C2=O)cc1 (centres undefined)	> 100	> 100	–	> 100	> 100	> 100	> 100	> 100	> 100	> 100	–	–	–	–	–	–	–	–	–	–
COc1cc(C2c3cc4c(cc3C(O)C3CCC(=O)N23)OCO4)cc(OC)c1OC (centres undefined)	> 100	> 100	> 100	> 100	> 100	> 100	> 100	55.1	–	> 100	–	–	–	–	–	–	–	–	–	–
CCNC(=S)N/N=C/c1cc(OC)ccc1O	> 100	> 100	> 100	> 100	> 100	–	> 100	> 100	> 100	> 100	–	–	–	–	–	–	–	–	–	–
CSc1nc2ccccc2c(=O)n1/N=C1\C(=O)N(CN2CCOCC2)c2ccc(Cl)cc21	> 100	61.3	–	> 100	> 100	> 100	> 100	64	75.6	–	–	–	–	–	–	–	–	–	–	–
CC(=O)Nc1ccc2c(C(=O)O)c(C)c(=O)[nH]c2n1	> 100	> 100	–	56	> 100	–	> 100	> 100	> 100	–	–	–	–	–	–	–	–	–	–	–
C(=N\Nc1ncc(-c2cc3cc4c(cc3o2)OCO4)s1)/c1c[nH]c2ccccc12	2.61	3.72	5.13	5.34	> 100	–	3.23	14.4	1.98	> 100	1.49	–	1.66	0.669	0.86	1.75	2.06	1.65	2.18	0.912
